Results: patent publication US11713470B2, “Targeted gene therapies for pain and other neuro-related disorders” (University of Pittsburgh—Of the Commonwealth System of …, priority 2017, dated 2023)
“Also recorded” adds a separate entry of the source.

Experiments:
mice lacking PSAM-GlyR = experiment: Pain models (carrageenan, CFA, sural-SNI) in mice lacking PSAM-GlyR (ligand-alone control); type: in vivo, mouse; details: 30 mg/kg i.p.
From the text: (§1) Methods. Animals: All animals were kept on a standard 12:12 light/dark cycle in micro-isolator caging racks (Allentown Caging) with food and water provided ad libitum. Mouse strains obtained from Jackson Laboratories include C57Bl/6J (JAX #000664), Calr^Cre (JAX #010774) and CCK^Cre (JAX #012706). Adeno-associated viruses (AAV2/8) used in these experiments: hSyn-Flex-rev-PSAM^L141F-GlyR-IRES-eGFP (7^12 vg/ml) and hSyn-Flex-rev-PSAM^L141F,Y115F-GlyR-IRES-eGFP (1.7^13 vg/ml) were custom made by UNC Vector core based on plasmid material developed by Scott Sternson and provided by Addgene. The hSyn-Flex-rev-PSAM^L141F-GlyR-IRES-eGFP (7^12 vg/ml) was used in all experiments except FIG. 8 (e,f). For these experiments, hSyn-Flex-rev-PSAM^L141F,Y115F-GlyR-IRES-eGFP (1.7^13 vg/ml) was used. Methods including: intra-spinal virus injections, paw withdrawal threshold to von Frey filaments, to cotton swab, Hargreaves, pinprick and acute pain behaviors licking, guarding, flicking are all as previously described (Peirs, C. et al. Dorsal Horn Circuits for Persistent Mechanical Pain. Neuron 87, 797-812 (2015); Seal, R. P. et al. Injury-induced mechanical hypersensitivity requires C-low threshold mechanoreceptors. Nature 462, 651-655, (2009)); For paw withdrawal threshold to pressure: mice were lightly restrained by hand such that their rear legs were allowed to freely hang. Using a Pressure Application Measurement device (Ugo Basile) the hind paw was grasped between the experimenter's forefinger and thumb (with pressure transducer on the thumb), and force was slowly applied to the paw until the mouse struggled or flicked its limb (paw withdrawal threshold, PWT). The final force in grams was recorded. Each mouse was tested on the left and right paw for three trials with a ten-minute inter-trial interval between applications, and the three results averaged for each paw. Injury Models including incision, complete Freund's adjuvant, spared nerve injury tibial and sural models, carrageenan, methylglyoxal and multi-dose streptozotocin are as previously described (Peirs, C. et al. Dorsal Horn Circuits for Persistent Mechanical Pain. Neuron 87, 797-812 (2015); Seal, R. P. et al. Injury-induced mechanical hypersensitivity requires C-low threshold mechanoreceptors. Nature 462, 651-655, (2009); Decosterd, I. and Woolf, C. J. Spared nerve injury: an animal model of persistent peripheral neuropathic pain. Pain 87, 149-158 (2000); Bierhaus, A. et al. Methylglyoxal modification of Nav1.8 facilitates nociceptive neuron firing and causes hyperalgesia in diabetic neuropathy. Nat Med 18, 926-933 (2012); Cavanaugh, D. J. et al. Distinct subsets of unmyelinated primary sensory fibers mediate behavioral responses to noxious thermal and mechanical stimuli. Proc Natl Acad Sci USA 106, 9075-9080, (2009)). Chemogenetic Activation of PSAM-GlyR Receptor: Behavior thresholds were performed as described above in AAV8-hSyn-DIO-PSAM-GlyR-IRES-GFP injected mice. PSEM^89S at 30 mg/kg was injected intraperitoneally 15 minutes prior to testing. Immunohistochemistry was performed as previously described (Peirs, C. et al. Dorsal Horn Circuits for Persistent Mechanical Pain. Neuron 87, 797-812 (2015); Seal, R. P. et al. Injury-induced mechanical hypersensitivity requires C-low threshold mechanoreceptors. Nature 462, 651-655 (2009)). α-bungarotoxin conjugated to Alexa-647 (1:1000; ThermoFisher B35450), α-bungarotoxin conjugated to Alexa-488 (1:1000; ThermoFisher B13422). Imaging: Spinal cord sections were imaged with a confocal laser-scanning microscope (Nikon A1R) and Nikon Elements software using 405-, 488-, 561- and 640 nm excitation laser light. In order to suppress emission crosstalk, the microscope was configured to perform all scanning in sequential mode. Z-series were scanned at 20× magnification with an oil immersion lens and a z-step of 5.0 μm. Quantification and Statistical Analysis: all data are reported as mean±SEM. For acute behaviors, a two-tailed Student's t-test was used. […]

[1] = molecular target: T1, PSAM-GlyR in CCK^+ dorsal horn neurons (Homo sapiens, UniProt P23415+P36544, L141F); type: in vivo, mouse; details: CCK^Cre mice with PSAM-GlyR
T1 construct: plasmid from Addgene (Sternson); host or cells: mouse dorsal horn neurons transduced with Cre-dependent AAV2/8 (Tlx3^Cre, CCK^Cre or Calr^Cre mice)
T1 sequence (P36544+P23415 fused P36544:L141F): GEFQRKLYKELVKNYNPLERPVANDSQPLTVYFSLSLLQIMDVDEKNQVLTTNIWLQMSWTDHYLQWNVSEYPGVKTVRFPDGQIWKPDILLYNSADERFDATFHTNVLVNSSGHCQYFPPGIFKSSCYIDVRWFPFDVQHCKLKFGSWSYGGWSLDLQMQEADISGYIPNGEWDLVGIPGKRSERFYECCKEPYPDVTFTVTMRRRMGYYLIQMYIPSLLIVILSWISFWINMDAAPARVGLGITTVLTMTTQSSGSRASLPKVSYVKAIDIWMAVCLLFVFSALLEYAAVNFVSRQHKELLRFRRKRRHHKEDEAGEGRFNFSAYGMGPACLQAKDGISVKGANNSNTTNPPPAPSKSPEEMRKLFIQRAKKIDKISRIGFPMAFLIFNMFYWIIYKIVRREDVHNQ
From the text: as §1

[2] = molecular target: T2, PSAM-GlyR in calretinin neurons in the dorsal horn lamina II (Homo sapiens, UniProt P23415+P36544, L141F); type: in vivo, mouse; details: Calr^Cre mice with PSAM-GlyR, 30 mg/kg i.p.
T2 construct: plasmid from Addgene (Sternson); host or cells: mouse dorsal horn neurons transduced with Cre-dependent AAV2/8 (Tlx3^Cre, CCK^Cre or Calr^Cre mice)
T2 sequence (P36544+P23415 fused P36544:L141F): as above
From the text: as §1

[3] = molecular target: T1, PSAM-GlyR in CCK^+ dorsal horn neurons; experiment: Persistent pain models in mice expressing PSAM-GlyR in CCK^+ dorsal horn neurons; type: in vivo, mouse; details: 30 mg/kg i.p., PSAM-GlyR in CCK^+ neurons
From the text: as §1

[4] = molecular target: T3, PSAM-GlyR in CCK^+ dorsal horn neurons (Homo sapiens, UniProt P23415+P36544, L141F/Y115F); experiment: as above; type: in vivo, mouse; details: PSAM^L141F,Y115F-GlyR virus, CCK^+ neurons
T3 construct: plasmid from Addgene (Sternson); host or cells: mouse dorsal horn neurons transduced with Cre-dependent AAV2/8 (Tlx3^Cre, CCK^Cre or Calr^Cre mice)
T3 sequence (P36544+P23415 fused P36544:Y115F/P36544:L141F): as the sequence (P36544+P23415 fused P36544:L141F) above, with Y93F counted along it
From the text: as §1

[5] = molecular target: T2, PSAM-GlyR in calretinin neurons in the dorsal horn lamina II; experiment: Inflammatory pain models in Calr^Cre mice expressing PSAM-GlyR in the dorsal horn; type: in vivo, mouse; details: 30 mg/kg i.p.
From the text: as §1, with “Nat Med 18, 926-933 (2012); Cavanaugh, D. J. et al. Distinct subsets of unmyelinated primary sensory fibers mediate behavioral responses to noxious thermal and mechanical stimuli. Proc Natl Acad Sci USA 106, 9075-9080, (2009)). Chemogenetic Activation of PSAM-GlyR Receptor: Behavior thresholds were performed as described above in AAV8-hSyn-DIO-PSAM-GlyR-IRES-GFP injected mice. PSEM^89S at 30 mg/kg was injected intraperitoneally 15 minutes prior to testing. Immunohistochemistry was performed as previously described (Peirs, C. et al. Dorsal Horn Circuits for Persistent Mechanical Pain. Neuron 87, 797-812 (2015); Seal, R. P. et al. Injury-induced mechanical hypersensitivity requires C-low threshold mechanoreceptors. Nature 462, 651-655 (2009)). α-bungarotoxin conjugated to Alexa-647 (1:1000; ThermoFisher B35450), α-bungarotoxin conjugated to Alexa-488 (1:1000; ThermoFisher B13422). Imaging: Spinal cord sections were imaged with a confocal laser-scanning microscope (Nikon A1R) and Nikon Elements software using 405-, 488-, 561- and 640 nm excitation laser light. In order to suppress emission crosstalk, the microscope was configured to perform all scanning in sequential mode. Z-series were scanned at 20× magnification with an oil immersion lens and a z-step of 5.0 μm.” left out, “mean±SEM.” for “mean±SEM. For acute behaviors, a two-tailed Student's t-test was used.”

PSAM-GlyR = details: Magnus et al. 2011; cited from earlier work

## COc1ccc(OC)c(C(=O)NC2CN3CCC2CC3)c1 (stereo not shown) [PSEM^89S]
Mice lacking PSAM-GlyR
  dynamic allodynia induced by the sural-SNI model: not altered
  punctate allodynia induced by the sural-SNI model: not altered
Mice lacking PSAM-GlyR; p>0.999
  dynamic allodynia induced by CFA: not altered; also recorded: no effect
  heat hypersensitivity, carrageenan pain model: not altered; also recorded: no effect
  mechanical allodynia, carrageenan pain model: not altered; also recorded: no effect
  punctate allodynia induced by CFA: not altered; also recorded: no effect
[1]
  performance on the rotarod: not altered
[1]; 30 mg/kg i.p., p=0.2192
  baseline von Frey threshold: no effect
[1]; p=0.5983
  baseline pinprick: no effect
[1]; p=0.7293
  baseline response to cotton swab: no effect
[1]; p=0.7450
  baseline pressure with calibrated calipers: no effect
[1]; p=0.9746
  baseline Hargreaves latencies: unchanged
[2]; p=0.3988
  baseline ipsilateral von Frey threshold: no effect
[2]; p=0.6125
  baseline Hargreaves latencies: unchanged
[2]; p=0.7689
  baseline pinprick: no effect
[2]; p=0.7963
  baseline response to cotton swab: no effect
[2]; p=0.8350
  baseline pressure with calibrated calipers: no effect
[2]; p=0.9346
  baseline sticky tape: no effect
[3]; p=0.0001
  dynamic allodynia, carrageenan pain model: significantly reversed
  dynamic allodynia, sural-SNI model: significantly reversed
[3]; p=0.0002
  heat hypersensitivity, carrageenan pain model: significantly reversed
[3]; p=0.0003
  punctate allodynia, sural-SNI model: significantly reversed
[3]; p=0.0016
  dynamic allodynia, CFA model: markedly reversed; also recorded: significantly reversed
[3]; p=0.0017
  punctate allodynia, carrageenan pain model: significantly reversed
[3]; p=0.0034
  punctate allodynia, CFA model: markedly reversed; also recorded: significantly reversed
[3]; p=0.0054
  punctate allodynia, tibial-SNI model: markedly reversed
[3]; p=0.0368
  heat hypersensitivity, CFA model: markedly reversed; also recorded: significantly reversed
[4]; p=0.010
  heat hypersensitivity induced by multi-dose STZ: reversed
[4]; p=0.0272
  heat hypersensitivity induced by MG (methylglyoxal): reversed
[5]; 24 hours after carrageenan, p=0.0074
  mechanical allodynia (punctate), carrageenan model: reverses; also recorded: significantly reversed
[5]; 5 days after CFA, ipsilateral hindpaw, p=0.0026
  mechanical allodynia (punctate), CFA model: reverses; also recorded: complete reversal
[5]; p=0.0001
  dynamic mechanical allodynia, incision model: reverses
[5]; p=0.0028
  punctate mechanical allodynia, incision model: reverses
PSAM-GlyR
  binding to the mutated receptor binding domain: high affinity
